Reference: PubChem BioAssay AID1259345
Calls of active or inactive are those of the source.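 Rule for the calls: active = IC50 below a set limit; inactive = the rest.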

Target: A2780 TERC promoter luciferase reporter, 16 h
Experiment: modulation of TERC promoter-driven luciferase – cell-based, luciferase reporter, human, SAR follow-up (AID 1259345)

IC50	Compound
inactive	Cc1nc2cc(-c3ccc(C#CCO)cc3)nn2c(C)c1CCC(=O)O
inactive	Cc1nc2cc(-c3cccc(Br)c3)nn2c(C)c1CCC(=O)O
